Assay results published in patent publication US20230019280A1, “SUBSTITUTED ISOINDOLONYL 2,2'-BIP[…], ANALOGUES THEREOF, AND METHODS USING SAME” (priority 2019, published 2023).
Where two headings read alike, the source gives them in different places.

Test system: HBsAg
Assay: HBsAg assay (inhibition of HBsAg in HepG2.2.15 cells)
Type: cell-based, hepatitis B virus
Details: supernatant HBsAg by CLIA at day 6 after exposure of compounds
Experimental: Inhibition of HBsAg was determined in HepG2.2.15 cells. Cells were maintained in culture medium containing 10% fetal calf serum, […], Glutamine, penicillin/streptomycin. Cells were seeded in 96-well collagen-coated plate at a density of 30,000 cells/well. Serially diluted compounds were added to cells next day at the final DMSO concentration of 0.5%. Cells were incubated with compounds for 2-3 days, after which medium was removed. Fresh medium containing compounds was added to cells for additional 3-4 days. At day 6 after exposure of compounds, supernatant was collected, the HBsAg immunoassay (microplate-based chemiluminescence immunoassay kits, CLIA, Autobio Diagnosics Co., Zhengzhou, China, Catalog #CL0310-2) was used to determine the level of HBsAg according to manufactory instruction. Dose-response curves were generated and the EC50 value (effective concentrations that achieved 50% inhibitory effect) were determined using XLfit software. In addition, cells were seeded at a density of 5,000 cells/well for determination of cell viability in the presence and absence of compounds by using CellTiter-Glo reagent (Promega).

[1] = read-out: sAg EC50, HepG2.2.15 cells
[2] = Hepatitis B virus, HepG2.2.15, 144 h, read-out: sAg EC50, HepG2.2.15 cells

CCC1c2cc(OC)c(Cl)cc2C(=O)N1c1ccnc(-c2ncccn2)n1 (single isomer, unassigned) [Example 6, 2-([2,2′-Bipyrimidin]-4-yl)-6-chloro-3-ethyl-5-methoxyisoindolin-1-one]
EC50 [1]: 14 nM

CCC1c2cc(F)c(OC)cc2C(=O)N1c1ccnc(-c2ncccn2)n1 (single isomer, unassigned) [Example 49, 3-Ethyl-5-fluoro-6-methoxy-2-(2-pyrimidin-2-ylpyrimidin-4-yl)isoindolin-1-one]
EC50 [1]: 10 nM

COc1cc2c(cc1OC)C(c1ccccc1)N(c1ccnc(-c3ncccn3)n1)C2=O (single isomer, unassigned) [Example 44, 2-([2,2′-Bipyrimidin]-4-yl)-5,6-dimethoxy-3-phenylisoindolin-1-one]
EC50 [1]: 160 nM

CCC1c2cc(OC)c(Cl)cc2C(=O)N1c1ccnc(-c2ncccn2)n1 (single isomer, unassigned) [Example 7, 2-([2,2′-Bipyrimidin]-4-yl)-6-chloro-3-ethyl-5-methoxyisoindolin-1-one]
EC50 [1]: 8000 nM

CCC1c2cc(OC)c(OC)cc2C(=O)N1c1ccnc(-c2ncccn2)c1 (stereo not shown) [Example 32, 3-Ethyl-5,6-dimethoxy-2-(2-(pyrimidin-2-yl)pyridin-4-yl)isoindolin-1-one]
EC50 [2]: 20 nM

CCC1c2c(F)cc(Cl)cc2C(=O)N1c1ccnc(-c2ncccn2)n1 (single isomer, unassigned) [Example 9, 2-([2,2′-Bipyrimidin]-4-yl)-6-chloro-3-ethyl-4-fluoroisoindolin-1-one]
EC50 [1]: 5000 nM

CCC1c2cc(OC)c(OC)cc2C(=O)N1c1cc(C)nc(-c2ncccn2)n1 (stereo not shown) [Example 36, 3-Ethyl-5,6-dimethoxy-2-(6-methyl-[2,2′-bipyrimidin]-4-yl)isoindolin-1-one]
EC50 [2]: 10000 nM

CCCC1c2cc(OC)c(OC)cc2C(=O)N1c1ccnc(-c2ncccn2)n1 (stereo not shown) [Example 38, 2-([2,2′-Bipyrimidin]-4-yl)-5,6-dimethoxy-3-propylisoindolin-1-one]
EC50 [2]: 10 nM

COc1cc2c(cc1OC)C(C(C)(C)C)N(c1ccnc(-c3ncccn3)n1)C2=O (stereo not shown) [Example 45, 2-([2,2′-Bipyrimidin]-4-yl)-3-(tert-butyl)-5,6-dimethoxyisoindolin-1-one]
EC50 [2]: 3 nM

CCC1c2cc(OC)c(OC)cc2C(=O)N1c1cc(F)nc(-c2ncccn2)n1 (single isomer, unassigned) [Example 68, 3-Ethyl-2-(6-fluoro-[2,2′-bipyrimidin]-4-yl)-5,6-dimethoxyisoindolin-1-one]
EC50 [1]: 1000 nM

CCC1c2cc(OC)c(OC)cc2C(=O)N1c1cccc(-c2ncccn2)n1 (stereo not shown) [Example 31, 3-Ethyl-5,6-dimethoxy-2-(6-(pyrimidin-2-yl)pyridin-2-yl)isoindolin-1-one]
EC50 [2]: 7000 nM

COc1cc2c(cc1OC)C(CC(C)C)N(c1ccnc(-c3ncccn3)n1)C2=O (single isomer, unassigned) [Example 40, 2-([2,2′-bipyrimidin]-4-yl)-3-isobutyl-5,6-dimethoxyisoindolin-1-one]
EC50 [1]: 10 nM

COCCC1c2cc(F)c(OC)cc2C(=O)N1c1ccnc(-c2ncccn2)n1 (single isomer, unassigned) [Example 53, 2-([2,2′-Bipyrimidin]-4-yl)-5-fluoro-6-methoxy-3-(2-methoxyethyl)isoindolin-1-one]
EC50 [1]: 38 nM

COc1cc2c(cc1OC)C(=O)N(c1ccnc(-c3ncccn3)n1)C2 [Example 62, 2-([2,2′-Bipyrimidin]-4-yl)-5,6-dimethoxyisoindolin-1-one]
EC50 [2]: 130 nM

O=C1c2cc(F)cc(F)c2CCN1c1ccnc(-c2ncccn2)n1 [Example 64, 2-([2,2′-Bipyrimidin]-4-yl)-5,7-difluoro-3,4-dihydroisoquinolin-1(2H)-one]
EC50 [2]: 5000 nM

CCC1c2cc(OC)c(OC)cc2C(=O)N1c1ccnc(-c2ncccn2)n1 (stereo not shown) [Example 1, 2-([2,2′-Bipyrimidin]-4-yl)-3-ethyl-5,6-dimethoxyisoindolin-1-one]
EC50 [2]: 27 nM
